# How the values were obtained:
# tumor = conditions: preclinical studies in mice; cited from earlier work
# MV4-11 cells = assay: Cell viability assay (CellTiter-Glo), 12 days; assay type: cell-based; conditions: Homo sapiens, readouts on days 4, 8 and 12, day not given
# Experimental: Cell-based assays were used to assess the ability of test compounds to reduce cell viability in both MV4:11 (MLL-AF4 MLL) and K562 cells, which were cultured in Iscove's Modified Dulbecco's medium (Gibco, 12440061) containing […]. The assays were conducted over 12 days and the cells being split on days 4 and 8. Compound concentration response curves were performed in duplicate over the concentration range of 0.15 nM-30 uM. On day 0, the compounds or vehicle were plated in a 300 nL directly into 96 well cell culture plates (Corning, 3599) with 5000 cells/well in a volume of 100 uL. Blank wells received cell culture medium. Plates were incubated for 4 days at 37° C. with 5% CO2. On days 4 and day 8 the cells were split and incubated for a further 4 days whilst an aliquot of cells were taken for the CTG readout. For the cell splitting, 270 nL of compounds or DMSO was added to a new 96 well cell culture plate to which 90 uL of medium plus 10 uL of cells from the original assay plate (after mixing) or 100 uL of medium (Blank wells) was added. This was repeated on day 8.
# Cell viability was assessed using the CellTiter-Glo® homogeneous luminescent assay kit (Promega, G9243), according to the manufacturer's instructions. This quantifies ATP, which indicates the presence of metabolically active cells. On days 4, 8 and 12, 20 ul of the remaining cell suspension was aspirated into 384-well plate (Corning 3570) to which an equal volume CellTiter-Glo reagent was. Plates were incubated for 10 minute incubation at RT prior to recording the luminescence signal using EnVision plate reader (PE, 2104). The resulting data were analyzed as follows:
# Inhibition (%)=100%×(Lumvehicie−Lumsample)/(Lumvehicle−Lumblank)
# where vehicle are cells treated with 0.3% DMSO, Blank is culture medium. IC50 determinations were calculated by fitting the curve using XLfit (v5.3.1.3): Y=Bottom+(Top−Bottom)/(1+10^((Log IC50−X)*HillSlope)).
# [1] = target: T1, ENL YEATS domain (6×HIS ENL YEATS Domain) binding to H3K9cr peptide (Homo sapiens, UniProt Q03111); assay: TR-FRET ENL Screening Assay, FRET Assay Protocol 1; conditions: H3K9cr peptide (aa1-20)
# T1 construct: aa1-150; EpiCypher, 15-0069; purchased EpiCypher 15-0069
# T1 sequence (Q03111 1-150): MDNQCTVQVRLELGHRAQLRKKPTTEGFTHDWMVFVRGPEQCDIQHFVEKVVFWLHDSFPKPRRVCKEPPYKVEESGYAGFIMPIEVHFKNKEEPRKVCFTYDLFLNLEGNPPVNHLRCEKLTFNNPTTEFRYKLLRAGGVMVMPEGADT
# Experimental: Compounds of the invention were dissolved in DMSO at a concentration of 3 mM with subsequent dilutions in assay buffer (50 mM HEPES PH7.0, 150 mM NaCl, 0.05% BSA, 0.2% Pluronic F-127) such that the assay contained 1% DMSO. […] Low control (LC) wells received 5 uL of assay buffer instead of ENL protein. […] Compound concentration response curves were performed in duplicate over the concentration range of 0.15 nM-30 uM. The response at each compound concentration minus the LC value was converted to percent inhibition of the vehicle control group response (HC-LC). The relationship between the % inhibition and the compound concentration was analyzed using a four parameter logistic equation to estimate lower and upper asymptotes, the compound concentration producing 50% inhibition (IC50 value) and the slope at the mid-point location.
# [2] = test system: myeloma tumors; leukemic engraftment of patient-derived primary samples; conditions: mice, cited from earlier work
# [3] = test system: BET family of bromodomain proteins; conditions: cited from earlier work
# acute myeloid leukemia = conditions: cited from earlier work
SMILES,IC50 (MV4-11 cells) [µM],IC50 [1] [nM],other results
CCn1nc(C2CC2)cc1Nc1nc(C(=O)NCCCOCCOCCOCCCNc2cccc3c2C(=O)N(C2CCC(=O)NC2=O)C3=O)nc2[nH]c3cc(-c4c(C)noc4C)c(OC)cc3c12 (stereo not drawn) [BET-d246],–,–,anti-tumor activity (tumor): strong anti-tumor activity
"C[C@H]1CCN1Cc1cc2cnc(NC(=O)c3ccc4[nH]nc(C5CC5)c4c3)cc2[nH]1 [Example 73, 3-cyclopropyl-N-(2-[[(2S)-2-methylazetidin-1-yl]methyl]-1H-pyrrolo[3,2-c]pyridin-6-yl)-1H-indazole-5-carboxamide]",0.684,238,–
C[C@H]1CCCN1Cc1cc2cnc(NC(=O)c3ccc4c(N)nccc4c3)cc2[nH]1 [Example 82],0.454,33,–
C[C@H]1CCCN1Cc1cc2cnc(NC(=O)c3ccc4c(N(C)C)nn(C)c4c3)cc2[nH]1 [Example 86],0.482,209,–
COc1cc2ccc(C(=O)Nc3cc4[nH]c(CN5CCC[C@@H]5C)cc4cn3)cc2cn1 [Example 88],0.623,141,–
"C[C@H]1CCCN1Cc1cc2cnc(NC(=O)c3ccc4c(NCC(F)F)nn(C)c4c3)cc2[nH]1 [Example 95, 3-[(2,2-difluoroethyl)amino]-1-methyl-N-(2-[[(2S)-2-methylpyrrolidin-1-yl]methyl]-1H-pyrrolo[3,2-c]pyridin-6-yl)indazole-6-carboxamide]",0.704,160,–
C[C@H]1CCCN1Cc1cc2cnc(NC(=O)c3ccc4c(c3)CNC(=O)N4C)cc2[nH]1 [Example 98],1.06,330,–
"Cc1ncc2cc(C(=O)Nc3cc4[nH]c(CN5CCC[C@@H]5C)cc4cn3)ccn12 [Example 99, 3-methyl-N-(2-[[(2S)-2-methylpyrrolidin-1-yl]methyl]-1H-pyrrolo[3,2-c]pyridin-6-yl)imidazo[1,5-a]pyridine-7-carboxamide]",0.468,186,–
COc1cc2c(cc1-c1c(C)noc1C)ncc1[nH]c(=O)n([C@H](C)c3ccccn3)c12 [I-BET 151],–,–,"leukemic engraftment and disease burden ([2]; in vivo, patient-derived primary samples): impairs the leukemic engraftment of patient-derived primary samples and lowers the disease burden; effect on myeloma tumors [2]: reduced myeloma tumors"
Cc1sc2c(c1C)C(c1ccc(Cl)cc1)=N[C@@H](CC(=O)OC(C)(C)C)c1nnc(C)n1-2 [JQ1],–,–,inhibition of BET bromodomain proteins [3]: potent inhibitor
CCS(=O)(=O)Nc1ccc(Oc2ccc(F)cc2F)c(-c2cn(C)c(=O)c3[nH]ccc23)c1 [Mivebresib],–,–,"antileukemic effects (acute myeloid leukemia; patients with relapsed and refractory AML): showed antileukemic effects; tolerability (acute myeloid leukemia; phase 1 study, patients with solid tumors and AML): well tolerated"

# The next lines start with results.
IC50 (MV4-11 cells) [µM],IC50 [1] [nM],SMILES,other results
0.044,78,C[C@H]1CCCN1Cc1cc2cnc(NC(=O)c3ccc4c(C5CC5)nn(C)c4c3)cc2[nH]1 [Example 56],–
0.314,272,Cc1cc2cc(C(=O)Nc3cc4[nH]c(CN5CCC[C@@H]5C)cc4cn3)ccc2nn1 [Example 57],–
0.182,330,C[C@H]1CCCN1Cc1cc2cnc(NC(=O)c3ccc4c(N)nn(C)c4c3)cc2[nH]1 [Example 60],–
0.094,85,C[C@H]1CCCN1Cc1cc2cnc(NC(=O)c3ccc4c(CO)nccc4c3)cc2[nH]1 [Example 66],–
0.149,125,Cc1n[nH]c2cc(C(=O)Nc3cc4[nH]c(CN5CCC[C@@H]5C)cc4cn3)ccc12 [Example 67],–
0.183,176,CNc1nn(C)c2cc(C(=O)Nc3cc4[nH]c(CN5CCC[C@@H]5C)cc4cn3)ccc12 [Example 85],–
0.134,210,C[C@H]1CCCN1Cc1cc2cnc(NC(=O)c3ccc4c(c3)c(N)nn4C)cc2[nH]1 [Example 92],–
0.181,97,C[C@H]1CCCN1Cc1cc2cnc(NC(=O)c3ccc4c(c3)[nH]c(=O)n4C)cc2[nH]1 [Example 93],–
0.365,118,"COCCNc1nn(C)c2cc(C(=O)Nc3cc4[nH]c(CN5CCC[C@@H]5C)cc4cn3)ccc12 [Example 94, 3-[(2-methoxyethyl)amino]-1-methyl-N-(2-[[(2S)-2-methylpyrrolidin-1-yl]methyl]-1H-pyrrolo[3,2-c]pyridin-6-yl)indazole-6-carboxamide]",–
0.321,572,CNc1cc2ccc(C(=O)Nc3cc4[nH]c(CN5CCC[C@@H]5C)cc4cn3)cc2cn1 [Example 97],–
0.22,210,Cn1ncc2ccc(C(=O)Nc3cc4[nH]c(CN5CC6(CCOCC6)C5)cc4cn3)cc21 [Example 104],–

# — US20230027198A1 (The Rockefeller University, priority 2019, published 2023)
